Tests used:
recombinant human IL-2 = experiment: Recombinant human IL-2 induced mouse thymocyte proliferation; type: cell-based; conditions: 10 ng/ml rh IL-2
Method: (§1) Lymphocyte proliferation is the standard test for monokine activity. It is highly sensitive, though relatively unspecific, with IL-2, phorbol myristate acetate, concanavalin A' g-type-prostaglandin and indomethacin-nall effecting disturbance. Human monocyte culture media are prepared as described under I.I.b. above, diluted 1:10, 1:20 and 1:40 (v:v), and added to […] (obtained from C3H/HeJ mice) Dulbecco's modified Eagle's medium, containing 20 mM hydroxyethyl-piperazin-ethane-sulfonic acid, 12 mM NaHCO3, 2 mM glutamine, 2% foetal bovine serum, 10 μM 2-mercaptoethanol, […] and antibiotics. The cells are incubated for 2 days in 96-well culture plates and the proliferation rate determined using a ^3 H-thymidine pulse (1 μC/well) during the final 6 hours. The incorporated radioactivity is collected on filter paper and counted. […] Thus determined ED50 s for the compounds D2 and K1 each in substantially pure Z-isomeric form in a series of 2 separate experiments each with 3 parallel determinations are of the order of 30 μM
(§2) In order to rule out an antagonistic effect or a direct influence of the COMPOUNDS OF THE INVENTION on the proliferation of mouse thymocytes which are used above in the LAF-test, the effect of the COMPOUNDS OF THE INVENTION on the incorporation of ^3 H-thymidine Is determined after thymocyte stimulation with recombinant human IL-1 or IL-2.

[1] = tested on: psoriatic arthritis or seronegative spondylarthrosis or osteoarthrosis; experiment: Clinical trial IV: degenerative joint disease; type: in vivo, human; conditions: ca. 200 to 1200 mg p.o./day, 8 weeks
Method: COMPOUND OF THE INVENTION, e.g. compound D2 or K1 in substantially pure Z-isomeric form, is administered at dosages of from ca. 200 to 1200 mg/p.o./day, once or in divided dosages up to 4×daily for 8 weeks. The subjects are examined at a regular interval of 2 weeks for disease progression on parameters such as pain sensation at the joints, evaluation of the functional capacity according to Steinbrocker, hand grip strength or Richtie Index.

IL-1 = IL-1 induced secretion of metalloproteinase (MP) in chondrocytes; type: cell-based; conditions: 2 days incubation
Method: Furthermore the influence on IL-1 induced secretion of MP is determined using chondrocytes as a target system for IL-1. IL-1 (Genzyme Corporation,USA) is added with or without a COMPOUND OF THE INVENTION or Dexamethasone (control) to chondrocytes and the activity or metalloproteinase is determined in the supernatant media of 2 days incubation period.

IL-1β = experiment: RIA-Kit IL-1 quantification in human monocyte cultures; type: cell-based
Method: (§3) Mononuclear cells are obtained from the blood of healthy volunteers via centrifugation and cultivated on tissue culture dishes with test compound at varying concentrations [Schnyder et al., J. Immunol., 138, 496-503 (1987)]. The non-adherent lymphocytes are removed after 4 hours by washing several times. Fresh medium, test compound and lipopolysaccharide (LPS) as stimulant are added and the monocytes incubated for further 19 hours. The pooled culture media are diluted 1:10 (v:v) with fresh medium and added to confluent rabbit chondrocytes. MP activity in the chondrocyte culture medium is assayed after a further 2 days. COMPOUNDS OF THE INVENTION, in particular compounds D2 and K1, are active in suppressing monokine release in the above test method at concentrations of the order of from about 30 to about 100 μM. Thus determined ED50 S for the compounds D2 and K1 each in substantially pure Z-isomeric form in a series of 3 or 7 separate experiments each with 3 parallel determinations are, for both compounds, of the order of 60 to 100 μM.
The procedures of example 1.1.b. above are repeated and IL-1 concentrations in recovered, undiluted culture medium determined employing a CISTRON IL-1 radioimmuno assay kit (the CISTRON kit is obtainable from Cistron, 10, Bloomfield Avenue, P.O. Box 2004, Pine Brook, NJ 07 058 USA. It is IL-1β specific and recognises both intra- and extra-cellular material).

recombinant human IL-1 = experiment: Recombinant human IL-1 induced mouse thymocyte proliferation; type: cell-based; conditions: 75 ng/ml rh IL-1
Method: as §1, §2

human monocytes = experiment: LAF-test (thymocyte proliferation), monokine production by human monocytes; type: cell-based; conditions: Monocyte, substantially pure Z-isomeric form, 2 separate experiments, 3 parallel determinations, read-out: ED50 (inhibition of monokine production)
Method: as §3
Lymphocyte proliferation is the standard test for monokine activity. […] The cells are incubated for 2 days in 96-well culture plates and the proliferation rate determined using a ^3 H-thymidine pulse (1 μC/well) during the final 6 hours. The incorporated radioactivity is collected on filter paper and counted. […]

pulmonary fibrosis = experiment: Pulmonary fibrosis (bleomycin induced); type: in vivo, New Zealand white rabbits; conditions: ca. 2.5 to 60 mg/kg/day p.o.; substantially pure Z-isomeric form; vs placebo
Method: Testing is carried out in accordance with the general methodology described by G. J. Laurent et al. in Eur. J. Clin. Invest. (1981) 11, 441-448. Pulmonary fibrosis is induced in groups of 4 New Zealand white rabbits (aged 127 days at commencement of the experiment), each weighing 2.0-2.5 kg, by intratracheal instillation of 10 mg/kg bleomycin. The lungs of test animals are examined 2, 4 and 8 weeks later.

periodontal disease = experiment: Clinical trial III: calcium resorption - periodontal disease; type: in vivo, human; conditions: ca. 400 to 1200 mg p.o./day or injection ca. 0.5 or 1.0 to 5.0 mg per gum pouch; after ca. 2 to 3 weeks
Method: COMPOUND OF THE INVENTION, e.g. compound D2 or K1 in substantially pure Z-isomeric form, is administered at dosages of from ca. 400 to 1200 mg/p.o./day administered once or in divided dosages up to 4x daily, or by injection into the gum at the site of disease at dosages of the order of about 0.5 or 1.0 to about 5.0 mg into each gum pouch. The subjects are examined at regular weekly or 2x weekly intervals for disease progression.

beagle dogs = experiment: Tolerability / pilot toxicology in beagle dogs; type: in vivo; conditions: 150 and 200 mg/kg p.o., gelatine capsules over 5 weeks, olive oil week 6 to 8; substantially pure Z-isomeric form
[2] = 3H-thymidine incorporation, mouse thymocytes
[3] = CISTRON IL-1 radioimmuno assay, human monocytes

SMILES: COC1=Cc2ccccc2/C(=C/C(=O)O)c2cc(Cl)sc21 [Compound K1, [2-Chloro-10-methoxy-4H-benzo[4,5]cyclohepta[1,2-b]thiophen-4-ylidene]-acetic acid]
- concentration dependency of influence on rh IL-2 induced proliferation (recombinant human IL-2): no concentration dependency is detectable
- influence on recombinant human IL-2 induced proliferation (recombinant human IL-2; [2]): no significant influence
- condition (degenerative joint disease) [1]: improvement in condition after the 8 week treatment period
- influence on IL-1 induced secretion of MP (IL-1): do not influence the IL-1 induced secretion of MP
- extra-cellular IL-1 level (IL-1β; [3]): extra-cellular content is reduced significantly
- intracellular IL-1 level (IL-1β; [3]): remain substantially unaffected
- IC50 (IL-1β; Homo sapiens, Monocyte, 19 h, substantially pure Z-isomeric form, 2-8 experiments, 3 parallel determinations, read-out: ED50 for extra-cellular IL-1 level suppression): ~25 µM
- concentration dependency of influence on rh IL-1 induced proliferation (recombinant human IL-1): no concentration dependency is detectable
- influence on recombinant human IL-1 induced proliferation (recombinant human IL-1; [2]): no significant influence
- IC50 (human monocytes): ~30 µM
- pulmonary fibrosis (pulmonary fibrosis): substantial reduction of pulmonary fibrosis
- condition (periodontal disease) (periodontal disease): marked improvement in condition after ca. 2 to 3 weeks continuous therapy
- pathological effects (beagle dogs): no pathological effects are observed
